Data from patent US9845420B2, “Latent heat cold storage material” (Panasonic Intellectual Property Management Co., Ltd., priority 2015, dated 2017).

Experiment: Saturated concentration (solubility) of crystalline powder compound in inorganic salt aqueous solution
Format: physicochemical
Settings: for Saturated concentration: 25° C., aqueous solution containing only 15 wt % of sodium chloride and 10 wt % of ammonium chloride; for Saturating concentration: 25 degrees Celsius
Procedure: The latent heat cold storage material of the present disclosure contains a crystalline powder as a supercooling inhibitor. The crystalline powder is formed of a compound having low solubility in an aqueous solution of an inorganic salt (hereinafter, also referred to as a low-solubility compound).
In the present disclosure, the “solubility” refers to a limit of an amount at which a solute is dissolved in a certain amount of a solvent. The solubility is represented by a mass (g) of the solute which is dissolved in 100 g of the solvent at a certain temperature. […] In the present disclosure, the “saturated concentration” refers to a concentration of an aqueous solution in which a solute is dissolved up to the solubility. When the limit of an amount at which a solute is dissolved in 100 g of a solvent is 20 g, the solubility is 20 g, and the saturated concentration of the solute is 16.7 wt %.

Saturated concentration	Saturating concentration (aqueous solution containing 10 wt % of potassium chloride and 10 wt % of ammonium chloride)	Saturating concentration (aqueous solution containing 12.5 wt % of potassium chloride and 12.5 wt % of ammonium chloride)	Solubility in the inorganic salt aqueous solution (normal temperature, inorganic salt concentration 10 to 30 wt %)	Structure (SMILES)
less than 0.08 wt %	–	–	–	CCCCNC(=O)NCCCC [1,3-dibutylurea]
less than 7.0 wt %	–	–	–	O=C(NC1CCCCC1)NC1CCCCC1 [1,3-dicyclohexylurea]
3.0 wt %	7.0 wt %	less than 7.0 wt %	≤ 10 wt %	CCNC(=O)NCC [1,3-diethylurea]
